Data set [1] can be described thus: Drop-diffusion assay of antibacterial activity. Type of data set: cell-based.
The subject of the next data set is S. aureus ATCC 43300. Type of data set: cell-based, Staphylococcus aureus. The settings on record: microtiter, serial 2-fold dilutions, 37°C, 16∼20 h, triplicate; – = no activity. Summed up:
(§1)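 Test peptides were serially diluted 2-fold in microtiter wells holding the same bacterial inoculum and incubated at 37°C for 16∼20 h. MIC was taken as the lowest peptide concentration with no visible growth; vancomycin served as control, and tests were run in triplicate.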

Data set [2] relates to Staphylococcus aureus CVCC 546. Nature of the data set: microbe, parasite or virus in culture. Type of data set: cell-based. The gist of the method: as §1
Data set [3] concerns S. epidermidis ATCC 12228. Nature of the data set: MIC, microtiter plate assay. Type of data set: cell-based, Staphylococcus epidermidis. Conditions: 37°C, 16∼20 h, triplicate. As to the method:
(§2) The minimal inhibitory concentration (MIC) was evaluated by a microtiter plate assay ([Wiegand et al., 2008]). Serial 2-fold dilutions of test peptides were placed into a 96-well plate containing identical bacterial inoculum and incubated at 37°C for 16∼20 h. Vancomycin was used as antibiotic control. The MIC value was defined as the lowest peptide concentration where no visible growth occurred. All tests were made in triplicate.

A further data set deals with S. suis CVCC 3928. The experiment in a line: MIC, microtiter plate assay. Conditions: 37°C, 16∼20 h, triplicate. Type of data set: cell-based, Streptococcus suis. As to the method:
as §2

The test system of data set [4] is Escherichia coli ATCC 25922. The experiment in a line: MIC, microtiter plate assay. Type of data set: cell-based. Conditions: 37°C, 16∼20 h, triplicate. Here is the method:
as §2

In data set [5] the test system is Salmonella pullorum CVCC 533. The experiment in a line: MIC, microtiter plate assay. Type of data set: cell-based. Conditions: 37°C, 16∼20 h, triplicate. As to the method:
as §2

For data set [6], the system named is Streptococcus pneumoniae CVCC 2350. Nature of the data set: MIC, microtiter plate assay. The format is cell-based. The settings on record: 37°C, 16∼20 h, triplicate. Here is the method:
as §2

Another data set concerns E. coli K88. Nature of the data set: MIC, microtiter plate assay. The format is cell-based, Escherichia coli. Conditions: 37°C, 16∼20 h, triplicate. Here is the method:
as §2

In another data set the test system is S. enteritidis CVCC 3377. The experiment in a line: MIC, microtiter plate assay. The settings on record: 37°C, 16∼20 h, triplicate. The format is cell-based, Salmonella enteritidis. As to the method:
as §2

The next data set deals with mouse erythrocytes. The experiment in a line: Hemolytic activity. Type of data set: cell-based. The settings on record: 128 μg/mL, 8% (v/v) mouse erythrocytes in PBS, 1 h, 37°C, absorbance 576 nm, n = 3. Here is the method:
Hemolytic activity of peptides was evaluated with fresh mouse erythrocytes. Briefly, fresh mouse erythrocytes were collected, washed, and resuspended to a concentration of 8% (v/v) in PBS. Then, an aliquot of erythrocyte solution was added to 96-well plates containing an equal volume of peptide solution (1∼256 μg/mL) and was incubated for 1 h at 37°C. The erythrocyte suspension treated with 0.1% Triton X-100 and left untreated was employed as positive and negative controls, respectively. After centrifugation at 2000 rpm for 5 min, the supernatant was measured using a microplate reader at 576 nm. The percent hemolysis was calculated using the following formula: Percenthemolysis = [(A − A0)/(A100 − A0)] × 100%, where A, A100, and A0 represent the absorbance of the peptide sample and positive and negative controls, respectively.

The subject of data set [7] is mouse macrophage RAW 264.7. The experiment in a line: Cytotoxicity, MTT assay. The format is cell-based. The settings on record: 256 μg/mL, RAW 264.7, MTT, n = 4. Here is the method: The cytotoxicity of peptides toward mouse macrophage RAW 264.7 was evaluated by the MTT assay as described previously ([Wang X. et al., 2018]).
Data set [8] concerns S. aureus CVCC 546. Nature of the data set: Membrane permeabilization, PI flow cytometry. Type of data set: cell-based, Staphylococcus aureus. The settings on record: 2 × MIC, 0.5 h, 10^8 CFU/mL, n = 3. As to the method:
The effects of peptides on membrane permeabilization were measured by flow cytometry ([Zhu et al., 2018]). […] Cells untreated and treated with 2 × MIC DLP4 or vancomycin were used as blank and positive controls. The fluorescence of the dye was monitored at an excitation wavelength of 488 nm and an emission wavelength of 635 nm.

The subject of data set [9] is S. aureus CVCC 546. The experiment in a line: Potassium ion (K+) leakage. The format is cell-based, Staphylococcus aureus. Conditions: 1 × MIC, treated for 150 min, 0.9% saline, 10^8 CFU/mL, ICP, n = 3. As to the method: To further investigate the effects of peptides on membrane integrity, K^+ leakage determination was carried out as previously described ([Miao et al., 2016]). Briefly, S. aureus CVCC 546 cells were centrifuged, washed, and resuspended in 0.9% sterile saline. The cell suspension (10^8 CFU/mL) was treated with peptides at 1 × MIC. Cells untreated and treated with DLP4 or nisin were used as blank and positive controls. At time intervals of 30, 60, 90, 120, and 150 min, the suspensions were centrifuged at 12000 rpm for 5 min. The supernatants were then subjected to measurement by Agilent inductively coupled plasma optical emission (ICP-OES).

The subject of another data set is S. aureus CVCC 546 gDNA. The experiment in a line: Gel retardation assay of gDNA binding. On the set-up: species or system Staphylococcus aureus. Conditions: 10 min incubation, 1% agarose gel, ratios 0-5 (w/w). As to the method: A gel retardation assay ([Zhao et al., 2019]) was utilized to analyze the binding of peptides to genomic DNA (gDNA) extracted from S. aureus CVCC 546 with TIANamp Bacteria DNA Kit (TIANGEN Biotech Co., Ltd., Beijing). The peptides were incubated for 10 min with gDNA at different ratios of 0–5.0 (w/w) and then loaded on 1% agarose gel for electrophoresis analysis.

For data set [10], the system named is S. aureus CVCC 546. The experiment in a line: Time-kill assay. Type of data set: cell-based, Staphylococcus aureus. Conditions: 2 × MIC, MHB, 10^5 CFU/mL, 37°C, n = 3. From the text: Time-kill assay was used to assess the killing rates of S. aureus cells by AMPs in vitro, done by measuring the number of viable bacteria left at various times after exposure to the peptides. […] At different time intervals, a certain sample was taken, serially diluted, and plated on MHA for colonies counting. Cells treated with 2 × MIC DLP4 or vancomycin and left without treatment were used as the positive and blank controls, respectively ([Flamm et al., 2019]).

Data set [11] concerns S. aureus CVCC 546. The experiment in a line: Post-antibiotic effect (PAE). Type of data set: cell-based, Staphylococcus aureus. Conditions: 2 × MIC, 2 h exposure, mean ± SD, n = 3. As to the method:
The PAE was determined by exposing S. aureus cells to antimicrobial agent at 1×, 2×, or 4 × MIC for 2 h. After drug removal by dilution, the bacterial culture was incubated at 37°C and 250 rpm. An aliquot of samples (50 μL) were taken for CFU counts at different time intervals until bacterial cultures became turbid. Bacteria treated with DLP4 or vancomycin and left without treatment were used as the positive and blank controls, respectively. The PAE was calculated using the following formula: PAE = T − C, where T is the time for the CFU counts to increase by 10-fold above the count observed immediately after drug removal, and C is the corresponding time for the untreated control ([Oh et al., 2019]).

Data set [12] has as its system S. aureus CVCC 546. Nature of the data set: Mouse thigh infection model, CFU in thigh muscle. Type of data set: in vivo, mouse (female CD-1). The settings on record: 10 mg/kg single i.p. dose 2 h post-infection, read 24 h post-infection, n = 6. As to the method:
(§3) Mouse experiments were carried out at Gene Engineering Laboratory, Feed Research Institute of Chinese Academy of Agricultural Sciences (CAAS) and complied with institutional animal care and use policies and procedures (AEC-CAAS-20090609). All animal studies were performed with female CD-1 mice, 6∼7 weeks old.
(§4) S. aureus CVCC 546 in the exponential phase were resuspended in MHB and adjusted to 1 × 10^8 CFU/mL, a 0.1-mL inoculum was injected into the right thighs of mice. At 2 h post-infection, mice (n = 6) were administered intraperitoneally (i.p.) with peptides at 2.5, 5, or 10 mg/kg. Mice raised without any treatment, or treated with PBS, 10 mg/kg DLP4, or vancomycin were used as the blank and negative and positive controls, respectively. At 24 h post-infection, peripheral blood was collected and serum was separated for cytokine levels analysis by using enzyme-linked immunosorbent assay (ELISA) kit (R&D systems, United States). Mice were euthanized, the right thighs were aseptically removed and processed for colonies counting ([Ling et al., 2015]).

Another data set concerns IL-10. Nature of the data set: Mouse thigh infection model, serum cytokine ELISA. Type of data set: in vivo, mouse (female CD-1). Conditions: 10 mg/kg i.p., serum 24 h post-infection. Here is the method: as §3, §4
A further data set has as its system IL-6. The experiment in a line: Mouse thigh infection model, serum cytokine ELISA. Type of data set: in vivo, mouse (female CD-1). Conditions: 10 mg/kg i.p., serum 24 h post-infection. As to the method: as §3, §4
A further data set concerns TNF-α. The experiment in a line: Mouse thigh infection model, serum cytokine ELISA. Type of data set: in vivo, mouse (female CD-1). Conditions: 10 mg/kg i.p., serum 24 h post-infection. As to the method:
as §3, §4

A further data set relates to Gram-negative bacteria. Nature of the data set: MIC, summary over Gram-negative strains. The format is cell-based. The settings on record: E. coli and Salmonella strains of Table 2. Here is the method: as §2

Values after ≈ are worked out from the molar mass of the structure shown. Ends that are not written are not given here. Peptide text beside a SMILES is read from it. Where only a bound is given, the exact number is not on record here.

This is an account of results in paper PMC7291858, “An Enhanced Variant Designed From DLP4 Cationic Peptide Against Staphylococcus aureus CVCC 546” (Frontiers in Microbiology, 2020).

In the case of “ATCDLLSPFKVGHAACAAHCIARGKRSGWCDKRAVCNCRK (also: bicyclic or more (positions not given here)) [ID7, DLP4 derivative changed at a conservative site]”, the antibacterial activity result in data set [1] is listed as “no antibacterial activity”.

Consider `CC[C@H](C)[C@@H]1NC(=O)[C@@H]2CSSC[C@@H](C(=O)N[C@@H](CCCNC(=N)N)C(=O)N[C@@H](CCCCN)C(=O)O)NC(=O)[C@H](CC(N)=O)NC(=O)[C@@H]3CSSC[C@H](NC(=O)[C@H](C)NC(=O)[C@H](C)NC(=O)[C@H](Cc4c[nH]cn4)NC(=O)CNC(=O)[C@H](C(C)C)NC(=O)[C@H](CCCCN)NC(=O)[C@H](Cc4ccccc4)NC(=O)[C@@H]4CCCN4C(=O)[C@H](CO)NC(=O)[C@H](CC(C)C)NC(=O)[C@H](CC(C)C)NC(=O)[C@H](CC(=O)O)NC(=O)[C@@H](NC(=O)[C@@H](NC(=O)[C@H](C)N)[C@@H](C)O)CSSC[C@H](NC(=O)[C@H](Cc4c[nH]c5ccccc45)NC(=O)CNC(=O)CNC(=O)[C@H](CCCNC(=N)N)NC(=O)[C@H](CCCCN)NC(=O)CNC(=O)[C@H](CCCNC(=N)N)NC(=O)[C@H](C)NC1=O)C(=O)N[C@@H](CC(=O)O)C(=O)N[C@@H](CCCCN)C(=O)N[C@@H](CCCNC(=N)N)C(=O)N[C@@H](C)C(=O)N[C@@H](C(C)C)C(=O)N3)C(=O)N[C@@H](C)C(=O)N[C@@H](C)C(=O)N[C@@H](Cc1c[nH]cn1)C(=O)N2` [DLP4] (HELM PEPTIDE1{A.T.C.D.L.L.S.P.F.K.V.G.H.A.A.C.A.A.H.C.I.A.R.G.K.R.G.G.W.C.D.K.R.A.V.C.N.C.R.K}$PEPTIDE1,PEPTIDE1,3:R3-30:R3|PEPTIDE1,PEPTIDE1,16:R3-36:R3|PEPTIDE1,PEPTIDE1,20:R3-38:R3$$$V2.0; N-terminus and C-terminus assumed), for which the “A1 (MIC against S. aureus ATCC 43300)” value in the data set on S. aureus ATCC 43300 is 16 µg/mL. The MIC in [2] (Table 1, – = no activity) was 16; in data set [2] (microtiter, 37°C, 16∼20 h, triplicate) it was 3.75 µM (≈ 16 µg/mL); in data set [3] it was 14.99 µM (≈ 64 µg/mL); in the data set with S. suis CVCC 3928, 3.75 µM (≈ 16 µg/mL); in data set [4], >29.98 µM; in data set [5], >29.98 µM. Moreover, the MIC in data set [6] is on record as 7.50 µM (≈ 32 µg/mL); in the data set on E. coli K88 it was >29.98 µM; with S. enteritidis CVCC 3377 it was >29.98 µM. This molecule also gave a hemolysis in the data set with mouse erythrocytes of 0.61%. The molecule also gave a cell viability in data set [7] of 63.8%. For the same molecule, the “percentage of PI-positive cells” value with S. aureus CVCC 546 [8] was found to be 41.8%. In addition, in the data set with S. aureus CVCC 546 [9], the “level of released K+” value is reported as 0.72 mg/L. For the same molecule, the “peptide/gDNA mass ratio at which gDNA was completely blocked” value in the data set with S. aureus CVCC 546 gDNA was 2.5. For the same molecule, the “peptide/gDNA mass ratio at which migration of gDNA began to be retarded” value in the data set with S. aureus CVCC 546 gDNA came out at 0.5. In the data set with S. aureus CVCC 546 [10], the “decrease of CFU counts within 1 h” value was determined as 2.7 log10 CFU/mL. Moreover, the PAE in the data set on S. aureus CVCC 546 [11] stood at 8.20 ± 0.19 h. The “reduction of S. aureus in infected thigh muscles” value in the data set on S. aureus CVCC 546 [12] was 1.7 log10 (CFU/g). In the data set on IL-10, the “downregulation of serum level of IL-10” value stood at 29.06 pg/mL. In addition, in the data set with IL-6, the “downregulation of serum level of IL-6” value stood at 710.02 pg/mL. Besides, the “downregulation of serum level of TNF-α” value with TNF-α is 1103.30 pg/mL. Further, the “activity against Gram-negative bacteria” value in the data set with Gram-negative bacteria was “no activity”.
